From patent publication US20120184016A1, “NOVEL PROTEIN AND GENE THAT CODES THEREFOR” (priority 2009, published 2012)

Assays:
[1] = test system: recombinant β-galactoside-α2,6-sialyltransferase N1C0; assay: Sugar acceptor substrate specificity (sialic acid transfer to monosaccharides/disaccharides); format: biochemical, Photobacterium leiognathi strain JT-SHIZ-119; design: Relative activity: concentration or dose not given beside the values; conditions: for transfer of sialic acid to the sugar acceptor substrate (in words) / Transferred NeuAc: purified enzyme; for transfer of sialic acid to the sugar acceptor substrate (in words): among 11 monosaccharides and disaccharides; for Transferred NeuAc: substance used as sugar acceptor substrate; for Relative activity: sialyltransferase activity represented by 100 for lactose
Experimental: Sialyltransferase activity was measured by a method described in J. Biochem., 120, 104-110 (1996) (which is hereby incorporated by reference in its entirety). Specifically, the enzyme reaction was performed using a reaction solution (30 μL) containing CMP-NeuAc (70 nmol, containing about 20000 cpm CMP-NeuAc in which NeuAc was labeled with ^14C; NeuAc represents N-acetylneuraminic acid) as a sugar donor substrate, lactose (1.25 μmol) as a sugar acceptor substrate, NaCl added to give a concentration of 0.5 M, and the enzyme prepared as described above. The enzyme reaction was carried out at 25° C. for about 10 to 180 minutes. After completion of the reaction, 1.97 mL of 5 mM phosphate buffer (pH 6.8) was added to the reaction solution, which was then applied to a Dowex 1×8 (PO4^3− form, 0.2×2 cm, manufactured by Bio-Rad Laboratories, Inc.) column. The radioactivity contained in the reaction product contained in the eluate (0 to 2 mL) from this column, that is, sialyllactose, was measured to calculate the enzyme activity. One enzyme unit (1 U) is defined as the amount of enzyme required to transfer one micromole of sialic acid per minute.
Sialic acid transfer reaction was performed using the purified enzyme, JT-SHIZ-119-derived recombinant β-galactoside-α2,6-sialyltransferase SHIZ119-N1C0, prepared in Example 3 and using various monosaccharides/disaccharides as sugar acceptor substrates. The reaction was performed by the method described in J. Biochem., 120, 104-110 (1996).
The monosaccharides used as sugar acceptor substrates were the following eight types: methyl-α-D-galactopyranoside (Gal-α-OMe), methyl-β-D-galactopyranoside (Gal-β-OMe), methyl-α-D-glucopyranoside (Glc-α-OMe), methyl-β-D-glucopyranoside (Glc-β-OMe), methyl-α-D-mannopyranoside (Man-α-OMe), methyl-β-D-mannopyranoside (Man-(3-OMe), N-acetylgalactosamine (GalNAc), and N-acetylglucosamine (GlcNAc). The disaccharides used were the following three types: lactose (Gal-β1,4-Glc), N-acetyllactosamine (Gal-β1,4-GlcNAc), and Gal-β1,3-GalNAc.
Note that the relative activity for each acceptor substrate is based on the sialyltransferase activity represented by 100 for lactose.

[2] = test system: JT-SHIZ-119-derived recombinant β-galactoside-α2,6-sialyltransferase N1C0 (neuraminidase activity); assay: Substrate specificity of neuraminidase activity with PA-sugar chains, HPLC; format: biochemical, Photobacterium leiognathi strain JT-SHIZ-119; conditions: 30° C. for 18 hours; FIGS. 3-5, 3-7, 3-8
Experimental: The substrate specificity of neuraminidase, that is, the linkage mode of sialic acid to a sugar chain that is cleaved by the neuraminidase can be determined by, but not limited to, a method using a pyridylaminated sugar chain. More specifically, the enzyme reaction by neuraminidase is performed using PA sugar chains in which sialic acid is linked by α2,3-linkage, α2,6-linkage, or α2,8-linkage (for example, pyridylaminated sugar chains such as PA-Sugar Chain 029, PA-Sugar Chain 023, and PA-Sugar Chain 034 available from Takara Bio Inc.). The reaction product is analyzed by high performance liquid chromatography, and the amount of sialic acid that was cleaved is calculated from the retention time and peak area of the reaction product.
To reveal the specificity of the neuraminidase activity of the JT-SHIZ-119-derived recombinant β-galactoside-α2,6-sialyltransferase N1C0, reactions using a PA-sugar chain shown in Table 4, to which sialic acid is linked via α2,3-, α2,6-, or α2,8-linkage (PA-Sugar Chain 029, PA-Sugar Chain 023, or PA-Sugar Chain 034, manufactured by Takara Bio Inc.) as a substrate were performed.
To a purified enzyme solution of the JT-SHIZ-119-derived recombinant β-galactoside-α2,6-sialyltransferase N1C0 (equivalent to 0.6 U as sialyltransferase activity), 1.5 μL of a 10 pmol/μL PA-sugar chain was added, followed by reaction at 30° C. for 18 hours. After completion of the reaction, the reaction solution was treated at 100° C. for 2 minutes to inactivate the enzyme, followed by HPLC to analyze the reaction product. In the case of using PA-Sugar Chain 023 as the substrate, the pyridylaminated sugar chain was eluted and analyzed under the same conditions as those in Example 1. In the case of using PA-Sugar Chain 029 or PA-Sugar Chain 034 as the substrate, the elution was performed using eluent A (100 mM acetate-triethylamine, pH 5.0) and eluent B (100 mM acetate-triethylamine containing 0.5% n-butanol, pH 5.0) with a linear gradient of 0 to 100% eluent B (0 to 35 min), 100% eluent B (35 to 50 min), and then a linear gradient of 100% to 30% eluent B (51 to 75 min). The analysis was performed under the conditions of Example 1. FIGS. 3-2 to 3-8 show the results.

Compound: CC(=O)N[C@H]1C(O)O[C@H](CO)[C@H](O)[C@@H]1O[C@@H]1O[C@H](CO)[C@H](O)[C@H](O)[C@H]1O (stereo partly drawn) [Gal-β1,3-GalNAc]
- transfer of sialic acid to the sugar acceptor substrate (in words) [1]: efficiently transferred
- Transferred NeuAc [1]: 1.68 nmol/min
- Relative activity [1]: 58%

Compound: OC[C@H]1O[C@@H](O[C@H]2[C@H](O)[C@@H](O)C(O)O[C@@H]2CO)[C@H](O)[C@@H](O)[C@H]1O (some centres unmarked) [Lactose, lactose]
- transfer of sialic acid to the sugar acceptor substrate (in words) [1]: efficiently transferred
- Transferred NeuAc [1]: 2.88 nmol/min
- Relative activity [1]: 100%

Compound: CO[C@H]1O[C@H](CO)[C@H](O)[C@H](O)[C@H]1O [Methyl-α-D-galactopyranoside, methyl-α-D-galactopyranoside]
- Transferred NeuAc [1]: 0.04 nmol/min
- Relative activity [1]: 1%

Compound: CO[C@H]1O[C@H](CO)[C@@H](O)[C@H](O)[C@H]1O [Methyl-α-D-glucopyranoside, methyl-α-D-glucopyranoside]
- Transferred NeuAc [1]: <0.01 nmol/min

Compound: CO[C@H]1O[C@H](CO)[C@@H](O)[C@H](O)[C@@H]1O [Methyl-α-D-mannopyranoside, methyl-α-D-mannopyranoside]
- Transferred NeuAc [1]: <0.01 nmol/min

Compound: CO[C@@H]1O[C@H](CO)[C@H](O)[C@H](O)[C@H]1O [Methyl-β-D-galactopyranoside, methyl-β-D-galactopyranoside]
- transfer of sialic acid to the sugar acceptor substrate (in words) [1]: efficiently transferred
- Transferred NeuAc [1]: 1.1 nmol/min
- Relative activity [1]: 38%

Compound: CO[C@@H]1O[C@H](CO)[C@@H](O)[C@H](O)[C@H]1O [Methyl-β-D-glucopyranoside, methyl-β-D-glucopyranoside]
- Transferred NeuAc [1]: <0.01 nmol/min

Compound: CO[C@@H]1O[C@H](CO)[C@@H](O)[C@H](O)[C@@H]1O [Methyl-β-D-mannopyranoside, methyl-β-D-mannopyranoside]
- Transferred NeuAc [1]: 0.04 nmol/min
- Relative activity [1]: 1%

Compound: CC(=O)N[C@H]1C(O)O[C@H](CO)[C@H](O)[C@@H]1O (some centres unmarked) [N-Acetylgalactosamine, N-acetylgalactosamine]
- transfer of sialic acid to the sugar acceptor substrate (in words) [1]: efficiently transferred
- Transferred NeuAc [1]: 0.29 nmol/min
- Relative activity [1]: 10%

Compound: CC(=O)N[C@H]1C(O)O[C@H](CO)[C@@H](O)[C@@H]1O (some centres unmarked) [N-Acetylglucosamine, N-acetylglucosamine]
- Transferred NeuAc [1]: <0.01 nmol/min

Compound: CC(=O)N[C@H]1C(O)O[C@H](CO)[C@@H](O[C@@H]2O[C@H](CO)[C@H](O)[C@H](O)[C@H]2O)[C@@H]1O (some centres unmarked) [N-Acetyllactosamine, N-acetyllactosamine]
- transfer of sialic acid to the sugar acceptor substrate (in words) [1]: efficiently transferred
- Transferred NeuAc [1]: 2.96 nmol/min
- Relative activity [1]: 103%

Compound: CC(=O)NC1C(O)CC(OC2C(O)C(CO)OC(OC(C(O)CO)C(O)C(O)CNc3ccccn3)C2O)(C(=O)O)OC1C(O)C(O)CO (centres unmarked) [PA-Sugar Chain 029, Neu5Acα2-3Galβ1-4Glc-PA]
- HPLC peak after reaction of the PA-sugar chain with the purified enzyme solution [2]: corresponds to PA-Sugar Chain 029

Compound: GD1b-hexasaccharide [PA-Sugar Chain 034]
- HPLC peak after reaction of the PA-sugar chain with the purified enzyme solution [2]: corresponds to PA-Sugar Chain 034

Compound: N-Acetyllactosamine type, disialylated biantennary [PA-Sugar Chain 023]
- HPLC peak after reaction of the PA-sugar chain with the purified enzyme solution [2]: corresponds to PA-Sugar Chain 001
